Results taken from ChEMBL document CHEMBL1909046, “DrugMatrix in vitro pharmacology data”.

Columns and labels:
[1] = molecular target: Vascular endothelial growth factor receptor 1 (Homo sapiens, UniProt P17948); assay type: cell-based; conditions: huvec; note: in other assays of this panel Not Active means under 50% inhibition at 10 µM
[2] = molecular target: T1, Muscarinic acetylcholine receptor M5 (Homo sapiens, UniProt P08912); assay type: cell membranes, CHO-K1, Membrane; conditions: cho-k1; note: in other assays of this panel Not Active means under 50% inhibition at 10 µM
T1 sequence (P08912 whole entry): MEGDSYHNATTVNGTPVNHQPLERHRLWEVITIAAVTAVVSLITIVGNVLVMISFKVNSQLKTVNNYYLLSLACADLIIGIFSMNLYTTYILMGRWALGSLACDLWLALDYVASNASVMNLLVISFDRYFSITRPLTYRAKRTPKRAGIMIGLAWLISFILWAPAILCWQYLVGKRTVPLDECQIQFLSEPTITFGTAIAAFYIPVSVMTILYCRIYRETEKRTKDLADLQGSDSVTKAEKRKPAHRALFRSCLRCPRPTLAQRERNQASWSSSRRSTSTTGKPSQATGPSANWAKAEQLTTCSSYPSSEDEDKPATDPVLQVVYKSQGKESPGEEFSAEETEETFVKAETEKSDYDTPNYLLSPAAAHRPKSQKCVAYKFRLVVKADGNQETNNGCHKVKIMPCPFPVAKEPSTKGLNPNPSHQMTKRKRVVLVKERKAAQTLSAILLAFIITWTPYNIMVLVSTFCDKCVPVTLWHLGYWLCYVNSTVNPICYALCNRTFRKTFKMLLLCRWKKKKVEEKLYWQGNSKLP

[3] = molecular target: Nitric oxide synthase 1 (Rattus norvegicus, UniProt P29476); assay type: tissue-based, Cerebellum; note: in other assays of this panel Not Active means under 50% inhibition at 10 µM
[4] = molecular target: T2, Nitric oxide synthase, inducible (Mus musculus, UniProt P29477); design: species or system Escherichia coli;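 note: inhibition of iNOS enzyme activity measured with L-arginine as substrate; in other assays of this panel Not Active means under 50% inhibition at 10 µM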
T2 sequence (P29477 whole entry): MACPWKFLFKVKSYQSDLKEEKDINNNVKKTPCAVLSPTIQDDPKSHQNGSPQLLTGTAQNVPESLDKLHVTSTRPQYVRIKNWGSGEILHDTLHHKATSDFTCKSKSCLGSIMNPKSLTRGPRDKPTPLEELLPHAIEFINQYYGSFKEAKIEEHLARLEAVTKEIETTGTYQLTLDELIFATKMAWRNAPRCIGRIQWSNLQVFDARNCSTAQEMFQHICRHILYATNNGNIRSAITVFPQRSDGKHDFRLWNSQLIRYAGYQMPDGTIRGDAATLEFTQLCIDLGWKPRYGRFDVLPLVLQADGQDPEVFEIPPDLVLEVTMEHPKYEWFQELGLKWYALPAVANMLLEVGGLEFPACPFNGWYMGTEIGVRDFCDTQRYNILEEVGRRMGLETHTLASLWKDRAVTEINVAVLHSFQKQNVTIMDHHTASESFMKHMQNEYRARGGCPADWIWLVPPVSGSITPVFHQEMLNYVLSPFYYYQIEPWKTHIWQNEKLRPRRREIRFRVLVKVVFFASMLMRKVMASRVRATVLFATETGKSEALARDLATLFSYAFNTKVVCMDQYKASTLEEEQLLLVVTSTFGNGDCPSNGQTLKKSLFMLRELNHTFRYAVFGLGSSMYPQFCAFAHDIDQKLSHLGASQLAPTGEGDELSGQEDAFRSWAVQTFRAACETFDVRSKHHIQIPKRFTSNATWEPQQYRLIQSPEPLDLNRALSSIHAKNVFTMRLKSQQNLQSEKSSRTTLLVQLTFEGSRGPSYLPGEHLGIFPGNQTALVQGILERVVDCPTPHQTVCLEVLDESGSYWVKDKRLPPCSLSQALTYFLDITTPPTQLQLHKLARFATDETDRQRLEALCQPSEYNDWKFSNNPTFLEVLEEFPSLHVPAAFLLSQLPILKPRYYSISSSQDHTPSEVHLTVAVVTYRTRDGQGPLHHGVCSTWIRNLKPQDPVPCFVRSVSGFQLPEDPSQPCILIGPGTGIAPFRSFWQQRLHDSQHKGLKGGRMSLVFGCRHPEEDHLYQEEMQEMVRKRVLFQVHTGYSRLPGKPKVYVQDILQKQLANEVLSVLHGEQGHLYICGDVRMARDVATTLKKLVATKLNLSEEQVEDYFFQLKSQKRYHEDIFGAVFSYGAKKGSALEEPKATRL

[5] = molecular target: T3, Caspase-1 (Homo sapiens, UniProt P29466); design: species or system Escherichia coli
T3 sequence (P29466 whole entry): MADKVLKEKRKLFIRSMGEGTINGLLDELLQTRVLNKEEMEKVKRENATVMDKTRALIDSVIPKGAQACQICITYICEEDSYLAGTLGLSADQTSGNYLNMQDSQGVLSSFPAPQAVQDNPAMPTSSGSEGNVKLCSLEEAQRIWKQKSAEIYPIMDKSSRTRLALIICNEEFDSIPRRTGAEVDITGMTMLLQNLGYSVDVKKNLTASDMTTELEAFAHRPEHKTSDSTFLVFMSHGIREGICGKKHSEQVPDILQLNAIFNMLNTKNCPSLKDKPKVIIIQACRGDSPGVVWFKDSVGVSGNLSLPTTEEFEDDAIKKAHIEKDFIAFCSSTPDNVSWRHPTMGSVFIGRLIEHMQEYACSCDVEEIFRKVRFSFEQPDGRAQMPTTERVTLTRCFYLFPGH

[6] = molecular target: Epidermal growth factor receptor (Homo sapiens, UniProt P00533); test: DRUGMATRIX: Protein Tyrosine Kinase, EGF Receptor enzyme inhibition (substrate: Poly(Glu:Tyr)); assay type: cell-based, Insect cells; conditions: insect cells, Not Active = under 50% inhibition at 10 µM
[7] = molecular target: Acetylcholinesterase (Homo sapiens, UniProt P22303); test: DRUGMATRIX: Acetylcholinesterase enzyme inhibition (substrate: acetylthiocholine); assay type: cell-based, HEK293; conditions: hek293; Not Active = under 50% inhibition at 10 µM
Acetylcholinesterase, sequence (P22303 whole entry): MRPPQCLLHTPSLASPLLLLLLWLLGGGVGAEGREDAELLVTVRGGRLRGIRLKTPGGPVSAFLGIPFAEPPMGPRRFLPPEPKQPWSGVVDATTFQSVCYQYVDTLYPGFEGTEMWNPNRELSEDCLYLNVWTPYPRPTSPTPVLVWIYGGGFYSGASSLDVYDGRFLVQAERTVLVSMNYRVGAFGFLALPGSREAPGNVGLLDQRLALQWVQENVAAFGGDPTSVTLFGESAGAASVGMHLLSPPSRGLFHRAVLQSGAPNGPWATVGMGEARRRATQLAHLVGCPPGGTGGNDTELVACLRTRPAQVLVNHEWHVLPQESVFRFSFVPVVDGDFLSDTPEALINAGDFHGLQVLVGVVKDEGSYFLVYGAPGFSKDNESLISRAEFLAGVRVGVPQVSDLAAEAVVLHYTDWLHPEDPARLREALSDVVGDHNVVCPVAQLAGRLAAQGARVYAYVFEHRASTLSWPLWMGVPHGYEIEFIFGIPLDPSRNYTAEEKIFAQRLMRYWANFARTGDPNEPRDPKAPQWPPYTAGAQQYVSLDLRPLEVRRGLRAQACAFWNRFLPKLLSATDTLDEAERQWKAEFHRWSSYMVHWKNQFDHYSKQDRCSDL

Vascular endothelial growth factor receptor 1, sequence (P17948 whole entry): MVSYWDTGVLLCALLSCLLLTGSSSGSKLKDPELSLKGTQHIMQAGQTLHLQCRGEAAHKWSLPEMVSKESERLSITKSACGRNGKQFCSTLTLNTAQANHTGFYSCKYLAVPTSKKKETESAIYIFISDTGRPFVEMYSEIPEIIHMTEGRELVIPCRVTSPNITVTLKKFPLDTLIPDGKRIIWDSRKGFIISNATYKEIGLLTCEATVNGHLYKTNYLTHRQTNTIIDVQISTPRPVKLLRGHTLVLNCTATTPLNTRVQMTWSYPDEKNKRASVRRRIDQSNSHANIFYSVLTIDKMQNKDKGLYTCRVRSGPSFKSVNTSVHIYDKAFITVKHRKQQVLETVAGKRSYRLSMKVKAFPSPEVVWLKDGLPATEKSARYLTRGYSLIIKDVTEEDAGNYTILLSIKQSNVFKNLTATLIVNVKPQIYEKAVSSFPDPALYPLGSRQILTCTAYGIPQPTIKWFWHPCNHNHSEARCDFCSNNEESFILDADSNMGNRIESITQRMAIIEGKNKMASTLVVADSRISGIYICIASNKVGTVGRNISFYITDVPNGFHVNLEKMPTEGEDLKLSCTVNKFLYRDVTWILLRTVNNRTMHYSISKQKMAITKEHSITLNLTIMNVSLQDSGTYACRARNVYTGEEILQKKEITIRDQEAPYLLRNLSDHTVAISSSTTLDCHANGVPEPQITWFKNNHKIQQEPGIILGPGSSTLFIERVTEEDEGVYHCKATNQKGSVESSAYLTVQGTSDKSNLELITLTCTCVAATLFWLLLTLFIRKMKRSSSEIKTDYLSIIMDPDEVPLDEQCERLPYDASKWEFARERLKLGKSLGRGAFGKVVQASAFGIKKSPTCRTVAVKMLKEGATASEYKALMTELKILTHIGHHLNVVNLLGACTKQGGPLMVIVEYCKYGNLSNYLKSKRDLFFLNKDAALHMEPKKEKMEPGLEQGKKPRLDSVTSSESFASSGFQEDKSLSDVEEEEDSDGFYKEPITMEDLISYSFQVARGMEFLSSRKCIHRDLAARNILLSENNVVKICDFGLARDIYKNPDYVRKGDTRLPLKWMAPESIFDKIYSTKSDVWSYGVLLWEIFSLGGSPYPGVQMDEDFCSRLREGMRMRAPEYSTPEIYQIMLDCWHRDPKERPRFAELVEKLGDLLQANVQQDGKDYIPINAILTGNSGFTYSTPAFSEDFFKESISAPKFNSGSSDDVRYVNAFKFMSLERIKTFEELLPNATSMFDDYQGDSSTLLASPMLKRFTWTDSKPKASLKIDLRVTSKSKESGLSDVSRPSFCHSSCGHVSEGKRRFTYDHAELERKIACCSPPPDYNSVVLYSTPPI
Nitric oxide synthase 1, sequence (P29476 whole entry): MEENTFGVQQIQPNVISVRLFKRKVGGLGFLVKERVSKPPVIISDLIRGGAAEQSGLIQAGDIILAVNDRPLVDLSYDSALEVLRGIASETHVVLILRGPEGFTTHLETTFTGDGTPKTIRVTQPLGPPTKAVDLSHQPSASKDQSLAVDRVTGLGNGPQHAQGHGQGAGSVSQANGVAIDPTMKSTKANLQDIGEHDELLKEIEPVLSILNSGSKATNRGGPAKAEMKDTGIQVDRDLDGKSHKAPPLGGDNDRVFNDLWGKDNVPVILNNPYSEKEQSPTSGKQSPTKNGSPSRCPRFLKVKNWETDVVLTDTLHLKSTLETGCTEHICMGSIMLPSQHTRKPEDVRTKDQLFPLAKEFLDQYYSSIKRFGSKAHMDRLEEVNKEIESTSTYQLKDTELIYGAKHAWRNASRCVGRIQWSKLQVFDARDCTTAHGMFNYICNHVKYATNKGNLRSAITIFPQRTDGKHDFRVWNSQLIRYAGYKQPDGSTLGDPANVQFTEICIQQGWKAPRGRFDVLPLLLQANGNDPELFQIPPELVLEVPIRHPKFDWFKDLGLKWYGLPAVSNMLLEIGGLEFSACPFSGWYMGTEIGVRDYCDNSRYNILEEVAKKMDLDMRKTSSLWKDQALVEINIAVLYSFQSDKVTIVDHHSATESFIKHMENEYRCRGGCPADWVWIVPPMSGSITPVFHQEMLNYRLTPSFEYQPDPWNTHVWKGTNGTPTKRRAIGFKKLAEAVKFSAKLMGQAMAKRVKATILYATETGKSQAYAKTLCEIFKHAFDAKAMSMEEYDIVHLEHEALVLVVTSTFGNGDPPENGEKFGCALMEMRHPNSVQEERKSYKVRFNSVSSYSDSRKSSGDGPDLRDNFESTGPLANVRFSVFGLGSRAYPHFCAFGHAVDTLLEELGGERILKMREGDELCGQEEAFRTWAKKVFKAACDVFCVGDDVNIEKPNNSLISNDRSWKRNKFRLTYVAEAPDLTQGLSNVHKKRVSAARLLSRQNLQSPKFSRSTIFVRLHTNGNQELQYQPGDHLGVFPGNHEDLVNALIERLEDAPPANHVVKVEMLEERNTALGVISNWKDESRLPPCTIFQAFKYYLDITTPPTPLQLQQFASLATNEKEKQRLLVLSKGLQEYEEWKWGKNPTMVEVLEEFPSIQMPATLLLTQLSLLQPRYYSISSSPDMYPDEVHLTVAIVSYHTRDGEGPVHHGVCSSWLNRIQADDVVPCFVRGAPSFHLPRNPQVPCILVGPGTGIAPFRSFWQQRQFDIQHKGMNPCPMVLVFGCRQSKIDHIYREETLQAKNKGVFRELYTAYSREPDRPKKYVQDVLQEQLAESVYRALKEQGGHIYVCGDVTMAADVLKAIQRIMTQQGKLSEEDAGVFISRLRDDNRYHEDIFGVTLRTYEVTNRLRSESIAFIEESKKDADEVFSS

Row | Molecule | IC50 [1] | IC50 [2] | IC50 [3] | IC50 [4] | IC50 [5] | IC50 [6] | IC50 [7] | Ki [1] | Ki [2] | Ki [3] | Ki [4] | Ki [5] | IC50 ([6]; read-out: IC50) | Ki [7]
1 | Cc1nccn1CC1CCc2c(c3ccccc3n2C)C1=O (stereo not drawn) [ONDANSETRON] | Not Active | Not Active | Not Active | Not Active | Not Active | Not Active | Not Active |  |  |  |  |  |  | 
2 | CCn1cc(C(=O)O)c(=O)c2cc(F)c(N3CCN(C)CC3)cc21 [PEFLOXACIN] | Not Active | Not Active | Not Active | Not Active | Not Active | Not Active | Not Active |  |  |  |  |  |  | 
3 | CCCCOc1ccc(OCCCN2CCOCC2)cc1 [PRAMOXINE] | Not Active | Not Active | Not Active | Not Active | Not Active | Not Active | Not Active |  |  |  |  |  |  | 
4 | O=C(C1CCCCC1)N1CC(=O)N2CCc3ccccc3C2C1 (stereo not drawn) [PRAZIQUANTEL] | Not Active | Not Active | Not Active | Not Active | Not Active | Not Active | Not Active |  |  |  |  |  |  | 
5 | CCN(CC)CCOC(=O)c1ccc(N)cc1 [PROCAINE] | Not Active | Not Active | Not Active | Not Active | Not Active | Not Active | Not Active |  |  |  |  |  |  | 
6 | CCCN(CCC)C(=O)C(CCC(=O)O)NC(=O)c1ccccc1 (stereo not drawn) [PROGLUMIDE] | Not Active | Not Active | Not Active | Not Active | Not Active | Not Active | Not Active |  |  |  |  |  |  | 
7 | NC(=O)c1cnccn1 [PYRAZINAMIDE] | Not Active | Not Active | Not Active | Not Active | Not Active | Not Active | Not Active |  |  |  |  |  |  | 
8 | Cc1cc2cc3c(C)cc(=O)oc3c(C)c2o1 [TRIOXSALEN] | Not Active | Not Active | Not Active | Not Active | Not Active | Not Active | Not Active |  |  |  |  |  |  | 
9 | CCCC(CCC)C(=O)O [VALPROIC ACID] | Not Active | Not Active | Not Active | Not Active | Not Active | Not Active | Not Active |  |  |  |  |  |  | 
10 | CCC1=C[C@@H]2CN(C1)Cc1c([nH]c3ccccc13)[C@@](C(=O)OC)(c1cc3c(cc1OC)N(C)[C@H]1[C@@](O)(C(=O)OC)[C@H](OC(C)=O)[C@]4(CC)C=CCN5CC[C@]31[C@@H]54)C2 [VINORELBINE] | Not Active | Not Active | Not Active | Not Active | Not Active | Not Active | Not Active |  |  |  |  |  |  | 
11 | CADMIUM DICHLORIDE | Not Active | Not Active | Not Active | Not Active | Not Active |  | Not Active | Not Active | Not Active | Not Active | Not Active | Not Active | 486 nM | Not Active
